Patent publication US7557134B2, “N-(heteroaryl)-1H-indole-2-carboxamide derivatives and their use as vanilloid TRPV1 receptor ligands” (Sanofi-Aventis, priority 2005, dated 2009)
Where a name gives a salt, the structure may show the parent alone.

Row | Structure (SMILES) | melting point [°C]
1 | O=C(Nc1ccc2ncsc2c1)c1cc2cc(C(F)(F)F)ccc2n1Cc1cccc(F)c1 | 191 to 192
2 | Cc1nc2cc(NC(=O)c3cc4cc(C(F)(F)F)ccc4n3Cc3cccc(F)c3)ccc2s1 | 191 to 192
3 | O=C(Nc1ccc2cnccc2c1)c1cc2cc(F)ccc2n1Cc1cccc(F)c1 | 139 to 141
4 | Cn1cnc2cc(NC(=O)c3cc4cc(F)ccc4n3Cc3cccc(F)c3)ccc21 | 248 to 251
5 | Cn1cnc2c(NC(=O)c3cc4cc(F)ccc4n3Cc3cccc(F)c3)cccc21 | 195 to 197
6 | O=C(Nc1ccc2ncsc2c1)c1cc2cc(F)ccc2n1Cc1cccc(F)c1 | 167 to 168
7 | Cc1nc2cc(NC(=O)c3cc4cc(F)ccc4n3Cc3cccc(F)c3)ccc2n1C | 281 to 282
8 | Cn1cnc2ccc(NC(=O)c3cc4cc(F)ccc4n3Cc3cccc(F)c3)cc21 | 215 to 216
9 | O=C(Nc1ccc2nc[nH]c2c1)c1cc2cc(F)ccc2n1Cc1cccc(F)c1 (as salt: HCl) | 275 to 280
10 | CN1CCCc2ccc(NC(=O)c3cc4ccccc4n3-c3cccc(C(F)(F)F)c3)cc21 [Compound 2, N-(1-methyl-1,2,3,4-tetrahydroquinol-7-yl)-1-[3-(trifluoromethyl)phenyl]-1H-indole-2-carboxamide] | 92 to 95
11 | CC1C(=O)NOc2ccc(NC(=O)c3cc4ccccc4n3-c3cccc(C(F)(F)F)c3)cc21 (stereo not shown) [Compound 6, N-(4-methyl-3-oxo-2H-benzoxazin-6-yl)-1-[3-(trifluoromethyl)phenyl]-1H-indole-2-carboxamide] | 178 to 180
12 | O=C(Nc1ccc2c(c1)CCNO2)c1cc2ccccc2n1-c1cccc(C(F)(F)F)c1 [Compound 10, N-(2,3-dihydrobenzoxazin-6-yl)-1-[3-(trifluoromethyl)phenyl]-1H-indole-2-carboxamide] | 90 to 92
13 | O=C1Cc2ccc(NC(=O)c3cc4ccccc4n3-c3cccc(C(F)(F)F)c3)cc2ON1 [Compound 11, N-(3-oxo-2H-benzoxazin-7-yl)-1-[3-(trifluoromethyl)phenyl]-1H-indole-2-carboxamide] | 214 to 216
14 | O=C(Nc1cccc2c1NCCC2)c1cc2ccccc2n1-c1cccc(C(F)(F)F)c1 [Compound 16, N-(1,2,3,4-tetrahydroquinol-8-yl)-1-[3-(trifluoromethyl)phenyl]-1H-indole-2-carboxamide] | 93 to 95
15 | O=C1Cc2cc(NC(=O)c3cc4cc(C(F)(F)F)ccc4n3Cc3cccc(F)c3)ccc2N1 [Compound 25, N-(2-oxoindolin-5-yl)-5-trifluoromethyl-1-[(3-fluorophenyl)methyl]-1H-indole-2-carboxamide] | 244 to 246
16 | CN1CCCc2ccc(NC(=O)c3cc4cc(C(F)(F)F)ccc4n3Cc3cccc(F)c3)cc21 [Compound 27, N-(1-methyl-1,2,3,4-tetrahydroquinol-7-yl)-5-trifluoromethyl-1-[(3-fluorophenyl)methyl]-1H-indole-2-carboxamide] | 146 to 147
17 | O=C1CCc2ccc(NC(=O)c3cc4cc(C(F)(F)F)ccc4n3Cc3cccc(F)c3)cc2N1 [Compound 41, N-(2-oxo-3,4-dihydroquinol-7-yl)-5-trifluoromethyl-1-[(3-fluorophenyl)methyl]-1H-indole-2-carboxamide] | 298 to 299
18 | O=C1Cc2cc(NC(=O)c3cc4cc(F)ccc4n3Cc3cccc(F)c3)ccc2N1 [Compound 42, N-(2-oxoindolin-5-yl)-5-fluoro-1-[(3-fluorophenyl)methyl]-1H-indole-2-carboxamide] | 249 to 250
19 | CS(=O)(=O)N1CCc2cc(NC(=O)c3cc4cc(F)ccc4n3Cc3cccc(F)c3)ccc21 [Compound 44, N-(1-methylsulfonylindolin-5-yl)-5-fluoro-1-[(3-fluorophenyl)methyl]-1H-indole-2-carboxamide] | 192 to 193
20 | CCc1nc2cc(NC(=O)c3cc4cc(C(F)(F)F)ccc4n3Cc3cccc(F)c3)ccc2o1 [Compound 46, N-(2-ethylbenzoxazol-5-yl)-5-trifluoromethyl-1-[(3-fluorophenyl)methyl]-1H-indole-2-carboxamide] | 187 to 189

Further lines, results first:

Row | melting point [°C] | Structure (SMILES)
21 | 206 to 207 | O=C(Nc1cccc2cnccc12)c1cc2cc(F)ccc2n1Cc1cccc(F)c1
22 | 182 to 183 | Cc1nc2cc(NC(=O)c3cc4cc(C(F)(F)F)ccc4n3Cc3cccc(F)c3)ccc2o1
23 | 167 to 174 | O=C(Nc1ccc2[nH]nnc2c1)c1cc2cc(C(F)(F)F)ccc2n1Cc1cccc(F)c1
24 | 208 to 210 | O=C(Nc1ccc2ncccc2c1)c1cc2cc(F)ccc2n1Cc1cccc(F)c1
25 | 210 to 211 | Cn1ncc2cc(NC(=O)c3cc4cc(F)ccc4n3Cc3cccc(F)c3)ccc21
26 | 188 to 189 | Cc1nc2cc(NC(=O)c3cc4cc(F)ccc4n3Cc3cccc(F)c3)ccc2o1
27 | 201 to 202 | Cc1nc2cc(NC(=O)c3cc4cc(F)ccc4n3Cc3cccc(F)c3)ccc2s1
28 | 220 to 221 | O=C(Nc1ccc2[nH]nnc2c1)c1cc2cc(F)ccc2n1Cc1cccc(F)c1
29 | 188 to 189 | O=C(Nc1ccc2nccnc2c1)c1cc2cc(F)ccc2n1Cc1cccc(F)c1
30 | 270 to 272 | O=C(Nc1ccc2ccncc2c1)c1cc2cc(F)ccc2n1Cc1cccc(F)c1 (as salt: HCl)
31 | 195 to 200 | Cc1nc2ccc(NC(=O)c3cc4cc(F)ccc4n3Cc3cccc(F)c3)cc2[nH]1 (as salt: HCl)
32 | 140 to 143 | O=C(Nc1ccc2c(c1)NCCC2)c1cc2ccccc2n1-c1cccc(C(F)(F)F)c1 [Compound 4, N-(1,2,3,4-tetrahydroquinol-7-yl)-1-[3-(trifluoromethyl)phenyl]-1H-indole-2-carboxamide]
33 | 198 to 200 | CC1C(=O)NOc2cc(NC(=O)c3cc4ccccc4n3-c3cccc(C(F)(F)F)c3)ccc21 (stereo not shown) [Compound 5, N-(4-methyl-3-oxo-2H-benzoxazin-7-yl)-1-[3-(trifluoromethyl)phenyl]-1H-indole-2-carboxamide]
34 | 141 to 143 | O=C(Nc1ccc2occc2c1)c1cc2ccccc2n1-c1cccc(C(F)(F)F)c1 [Compound 8, N-(benzofuran-5-yl)-1-[3-(trifluoromethyl)phenyl]-1H-indole-2-carboxamide]
35 | 222 to 224 | O=C(Nc1ccc2ocnc2c1)c1cc2ccccc2n1-c1cccc(C(F)(F)F)c1 [Compound 17, N-(benzoxazol-5-yl)-1-[3-(trifluoromethyl)phenyl]-1H-indole-2-carboxamide]
36 | 214 to 215 | CS(=O)(=O)N1CCc2cc(NC(=O)c3cc4cc(C(F)(F)F)ccc4n3Cc3cccc(F)c3)ccc21 [Compound 31, N-(1-methylsulfonylindolin-5-yl)-5-trifluoromethyl-1-[(3-fluorophenyl)methyl]-1H-indole-2-carboxamide]
37 | 194 to 195 | O=C(Nc1ccc2oc(-c3ccccc3)nc2c1)c1cc2cc(C(F)(F)F)ccc2n1Cc1cccc(F)c1 [Compound 47, N-(2-phenylbenzoxazol-5-yl)-5-trifluoromethyl-1-[(3-fluorophenyl)methyl]-1H-indole-2-carboxamide]
